The results in this text go back to patent publication US10414778B2, “Methods for treatment of resistant cancer” (New Mexico Tech University Research Park Corporation, priority 2016, dated 2019).

The test system of test [1] is GBM 031810 cells. Nature of the test: MTT growth inhibition, primary GBM-derived neurosphere culture GBM 031810. In kind it is cell-based. To be noted: Homo sapiens, Table 3, 48-96 h treatment, read-out: GI50 in vitro values, glioma GBM 031810. Here is the method: (§1) Cell culture media were supplemented with 4 mM glutamine (Lonza code BE17-605E), 100 μg/mL gentamicin (Lonza code 17-5182), and penicillin-streptomycin (200 units/ml and 200 μg/ml) (Lonza code 17-602E). Primary GBM-derived neurosphere cultures from a patient undergoing surgical debulking were established using previously described methods. Briefly, resected tumor tissue was minced with a sterile scalpel and dissociated in 3 mL of neurobasal (NB) media containing 100 U/mL of collagenase (Life Technologies™) for 30 minutes at 37° C. Dissociated tissue was then vortexed and filtered using a sterile 70 um nylon Falcon™ cell strainer (Corning™). […]
(§2) Compound 4l was evaluated for in vitro growth inhibition against a panel of cancer cell lines, including U373, U251, U87, T98G, human GBM, and A549 NSCLC. […] Compound 4l was also evaluated for in vitro growth inhibition against the apoptosis-sensitive tumor model Hs683 anaplastic oligodendroglioma as a reference.

For test [2], the system named is H1993 cells. Nature of the test: Combination treatment with paclitaxel, CellTiter-Glo viability, Bliss Independence. Type of test: cell-based, human. As to conditions: 96 h, FIG. 2. The protocol:
Spirodienone 4l was evaluated against patient-derived NSCLC cell line H1993 and its drug-resistant variant, H2073. The patient-derived NSCLC cell line […] was obtained from a regrown tumor at a primary site after a patient relapsed several months later.
Paclitaxel (Teva™) was dissolved in polyethoxylated castor oil. Compound 4l was dissolved in DMSO. The compound was diluted to different concentrations in medium. Appropriate numbers of cells (4×10^3 cells per well for H1993, 7×10^3 cells per well for H2073) were seeded into 96-well plates. […] After 96 h, viability of cells was assessed using the CellTiter-Glo® Luminescent Cell Viability Assay (Promega™), according to the manufacturer's instructions. Predicted additivity was calculated based on Bliss Independence, as defined by Exy=Ex+Ey−ExEy, where Exy is the additive effect of drugs x and y as predicted by the individual effects Ex and Ey.
FIG. 2 and FIG. 3 illustrate the synergism against H1993 cells.

Test [3] deals with GBM 090909 cells. Briefly: MTT growth inhibition, primary GBM-derived neurosphere culture GBM 090909. As to conditions: Homo sapiens, Table 3, 48-96 h treatment, read-out: GI50 in vitro values, glioma GBM 090909. In kind it is cell-based. Here is the method:
as §1, §2

As usually defined, the GI50 is the concentration that inhibits growth by half. For the compound `O=C1C=CC2(C=C1)CCN(C(=O)C(F)(F)F)Cc1c2sc2ccccc12` [Compound 4l], the GI50 turned out to be 8 µM in test [1] and 7 µM in test [3]. In test [2], the “synergism with paclitaxel in antiproliferative action” value is “synergize with paclitaxel”.
